Blank lines part the entries; values can stand above or below the molecule they belong to.
Tests used:
CYP2C9 = molecular target: T1, CYP2C9 (Homo sapiens, UniProt P11712); assay: Time-dependent inhibition of CYP450 enzymes in human liver microsomes: CYP2C9; type: in vitro ADME
T1 construct: from tissue; host or cells: pooled human liver microsomes
Method: (§1) An assessment of the time-dependent Inhibitory Potential of the test compounds against Principal Human Cytochrome P450 Isozymes using Human Liver Microsomes was also carried out using standard methods (Grimm et al, Drug Metab. Dispos., Jul; 37(7):1355-70. doi: 10.1124/dmd.109.026716, 2009). Pooled human microsomes and selective CYP probe substrates were used for in vitro assessment of test compounds at 25 and 50 μM as time-dependent inhibitors of […] human hepatic cytochrome P450 isozymes (CYP1A2, 2B6, 2C9, 2C19, 2D6, and 3A4). LC-MS/MS was used to quantify metabolite formation. The inhibition of each P450 enzyme in human liver microsomes was measured as the percentage decrease in the activity of marker metabolite formation as measured by LC-MS/MS compared to non-inhibited controls (=100% activity) at time zero and after 30 minutes incubation. The occurrence of any time dependent inhibition was then expressed as the fold change in enzyme activity at time zero relative to the activity after 30 minutes incubation. The time dependent inhibition for the compound 5-(3,4-difluorobenzyl)-8-((1 r,4r)-4-methylcyclohexyl)-6,9-dioxo-2,5, 8-triazaspiro [3.5]nonane-2-carbaldehyde (Compound 1) against CYP1A2, […], CYP2C8, CYP2C9, CYP2C19, CYP2D6, CYP3A4-M and CYP3A4-T is shown in Table B-12.

CYP1A2 = molecular target: T2, CYP1A2 (Homo sapiens, UniProt P05177); assay: Time-dependent inhibition of CYP450 enzymes in human liver microsomes: CYP1A2; type: in vitro ADME
T2 construct: from tissue; host or cells: pooled human liver microsomes
T2 sequence (P05177 1-516): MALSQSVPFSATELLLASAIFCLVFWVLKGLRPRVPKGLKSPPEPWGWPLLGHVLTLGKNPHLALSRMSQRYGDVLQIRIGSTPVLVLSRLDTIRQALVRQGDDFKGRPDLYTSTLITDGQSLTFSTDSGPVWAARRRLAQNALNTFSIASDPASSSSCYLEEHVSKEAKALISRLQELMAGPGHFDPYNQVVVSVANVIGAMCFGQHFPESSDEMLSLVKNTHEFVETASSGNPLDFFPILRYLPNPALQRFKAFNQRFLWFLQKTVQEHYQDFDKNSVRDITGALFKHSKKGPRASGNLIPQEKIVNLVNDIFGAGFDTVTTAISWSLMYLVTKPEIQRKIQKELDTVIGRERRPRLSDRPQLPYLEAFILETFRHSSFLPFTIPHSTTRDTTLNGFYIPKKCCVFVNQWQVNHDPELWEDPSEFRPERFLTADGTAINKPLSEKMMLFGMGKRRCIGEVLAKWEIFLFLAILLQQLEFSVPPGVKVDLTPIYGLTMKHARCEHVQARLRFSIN
Method: as §1

[1] = Dog cassette dosing IV pharmacokinetics; type: in vivo; conditions: plasma, male beagle dogs
Method: Non-naïve male beagle dogs (8 months to 3 years of age, body weight 8-14 kg) sourced from Jiangsu Johnsen Bioresource CO. and/or Beijing Rixinkeji CO., LTD and/or Beijing Marshall Biotechnology CO., LTD were used in this study. All animals for IV administration had free access to food and water. The IV dose solution was prepared in 10% DMA/50% PG/40% HP0CD solution (40% w/v aqueous HP0CD) at a concentration of 0.2 mg/mL. Concentrations of IV dose was measured at the end of the study. PK parameters were calculated using the nominal dose values if the measured values were within 20% of the nominal values. Blood samples were collected by venipuncture of peripheral veins except the dosing vein at pre-dose, 5 15, 30 min, 1, 2, 4, 6, 8 and 24 h post-dose. Blood samples were centrifuged and resultant plasma was frozen for bioanalysis. Plasma samples were stored at −80° C. before analysis. Plasma samples were analyzed for compound concentrations using the LC/MS/MS method. Briefly, a 50 p L aliquot of each plasma sample was mixed with 100 μL of acetonitrile that contained an internal standard. The mixture was vortexed and centrifuged. Ten (10) μL of the resulting solution was injected onto a reverse-phase C18 column and the resultant peaks detected on a LC/MS/MS equipped with a turbo ionspray ionization source. Sample concentrations below the limit of quantification (BLQ) were treated as zero for PK calculations. […] The elimination rate constant (k) was calculated as the absolute value of the slope of the linear regression of logarithm (log) of the concentration versus time for the last three data points of the concentration-time profiles. Apparent elimination half-life (t½) values were calculated as 1n(2)/k. […] AUC values were calculated from the dosing time to the last measurable concentration. AUC∞ values were calculated as the sum of the corresponding AUC and the ratio of the last detectable concentration divided by k. Plasma clearance (CL) was calculated from Dose/AUC.. […] Vss was calculated from MRT∞×CL. Maximum concentration (Cmax) and time to reach Cmax (tmax) were recorded as observed. […]

[2] = Monkey cassette dosing IV pharmacokinetics; type: in vivo; conditions: male, plasma
[3] = Short-term static storage stability of the solid (XRPD, HPLC); type: physicochemical
Method: Purity analysis was performed on an Agilent HP1100/Infinity 111260 series system equipped with a diode array detector and using OpenLAB software. The full method details are provided below.
For short-term (8 days or fewer) stability experiments, solid material was placed into open vials at elevated storage conditions, unless otherwise stated. These conditions were achieved using saturated salt solutions at specific temperatures within sealed containers. Storage containers were pre-equilibrated prior to input of samples.

T1 sequence (P11712 whole entry): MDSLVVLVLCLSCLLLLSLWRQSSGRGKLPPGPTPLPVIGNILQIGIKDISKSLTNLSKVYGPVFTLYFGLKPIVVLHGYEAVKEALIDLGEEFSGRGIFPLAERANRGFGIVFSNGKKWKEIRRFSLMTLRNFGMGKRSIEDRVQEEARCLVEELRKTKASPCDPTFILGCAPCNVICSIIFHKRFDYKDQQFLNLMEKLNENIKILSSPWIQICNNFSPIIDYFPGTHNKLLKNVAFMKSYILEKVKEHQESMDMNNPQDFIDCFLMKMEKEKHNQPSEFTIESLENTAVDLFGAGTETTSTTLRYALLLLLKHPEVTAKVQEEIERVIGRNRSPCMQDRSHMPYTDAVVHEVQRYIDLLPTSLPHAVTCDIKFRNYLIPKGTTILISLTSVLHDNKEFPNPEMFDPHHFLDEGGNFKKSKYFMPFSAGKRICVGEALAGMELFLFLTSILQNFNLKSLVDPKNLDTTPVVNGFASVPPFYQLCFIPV

(% Activity NADPH T0)/(% Activity NADPH T30) (CYP2C9; CYP2C9, 25 μM): 1.0
(% Activity NADPH T0)/(% Activity NADPH T30) (CYP2C9; CYP2C9, 50 μM): 0.9
activity at 30 min, 25 µM (CYP2C9; human, pooled human liver microsomes, CYP2C9, 25 μM, 30 minutes incubation, read-out: % Activity NADPH T30): 84%
activity at 0 min, 25 µM (CYP2C9; human, pooled human liver microsomes, CYP2C9, 25 μM, time zero, read-out: % Activity NADPH T0): 83%
activity at 30 min, 50 µM (CYP2C9; human, pooled human liver microsomes, CYP2C9, 50 μM, 30 minutes incubation, read-out: % Activity NADPH T30): 71%
activity at 0 min, 50 µM (CYP2C9; human, pooled human liver microsomes, CYP2C9, 50 μM, time zero, read-out: % Activity NADPH T0): 63%
(% Activity NADPH T0)/(% Activity NADPH T30) (CYP1A2; CYP1A2, 25 μM): 1.1
(% Activity NADPH T0)/(% Activity NADPH T30) (CYP1A2; CYP1A2, 50 μM): 1.0
activity at 30 min, 25 µM (CYP1A2; human, pooled human liver microsomes, CYP1A2, 25 μM, 30 minutes incubation, read-out: % Activity NADPH T30): 90%
activity at 0 min, 25 µM (CYP1A2; human, pooled human liver microsomes, CYP1A2, 25 μM, time zero, read-out: % Activity NADPH T0): 95%
activity at 30 min, 50 µM (CYP1A2; human, pooled human liver microsomes, CYP1A2, 50 μM, 30 minutes incubation, read-out: % Activity NADPH T30): 85%
activity at 0 min, 50 µM (CYP1A2; human, pooled human liver microsomes, CYP1A2, 50 μM, time zero, read-out: % Activity NADPH T0): 86%
clearance [1]: 5.12 mL/min/kg
half-life [1]: 11.8 h
Vd ([1]; read-out: Vss): 4.48 L/kg
clearance [2]: 13.1 mL/min/kg
half-life [2]: 8.69 h
Vd ([2]; read-out: Vss): 8.8 L/kg
SMILES: C[C@H]1CC[C@H](N2CC(=O)N(Cc3ccc(F)c(F)c3)C3(CN(C=O)C3)C2=O)CC1 [Compound 1, 5-(3,4-difluorobenzyl)-8-((1r,4r)-4-methylcyclohexyl)-6,9-dioxo-2,5,8-triazaspiro[3.5]nonane-2-carbaldehyde]

HPLC purity ([3]; Before Storage): 98.2%
XRPD ([3]; Before Storage): Form II
XRPD ([3]; Storage at 25° C./97% RH for 8 days): Unchanged by XRPD
XRPD ([3]; Storage at 40° C./75% RH for 8 days): Unchanged by XRPD
SMILES: C[C@H]1CC[C@H](N2CC(=O)N(Cc3ccc(F)c(F)c3)C3(CN(C=O)C3)C2=O)CC1 [Form II, 5-(3,4-difluorobenzyl)-8-((1r,4r)-4-methylcyclohexyl)-6,9-dioxo-2,5,8-triazaspiro[3.5]nonane-2-carbaldehyde]

— patent publication US20240132498A1, “CRYSTALLINE FORMS OF 5-(3,4-DIFLUOROBENZYL)-8-((1R,4R)-4-METHYLCYCLOHEXYL)-6,9-DIOXO-2,5,8-TRIAZASPIRO[3.5]NONANE-2-CARBALDEHYDE” (Cytokinetics, Incorporated, priority 2022, published 2024)
